Measurements: patent US20260217764A1, “SELECTIVE INHIBITORS OF C. ACNES HYALURONIDASE” (priority 2022, published 2026)
Square brackets hold non-standard residues; d marks the D form. Ends that are not written are not given here. Peptide text beside a SMILES is read from it.

Assays:
[1] = biological target: T1, HylA (Cutibacterium acnes, UniProt A0A2B7ICX0); experiment: Microscale thermophoresis (MST) measurement of HylA binding to peptide inhibitors; parameters: species or system C. acnes
T1 construct: HylA (41-805) were cloned into; His6 (N); MBP (N); made in house; host or cells: E. coli BL21(DE3) pLysS
Protocol: The Monolith NT.115 instrument (Nanotemper Technologies, München, Germany) was used to measure the binding of peptide inhibitors to the HylA. For the MST experiment, the HylA is fluorescently labeled by cysteine labeling by using the Monolith protein labeling kit RED-MALEIMIDE 2nd generation (Catalog Number: L014). The assay is performed in 100 mM Sodium acetate buffer pH 5.3 supplied with 0.05% Tween-20. A serial dilution of the 1932 peptide (50 μM through 1.5 nM) was titrated against 30 nM fluorescent labeled HylA. For the titration, 10 μL of each concentration of the peptide was mixed with 10 μL of the fluorescent labeled HylA. The MST measurement settings include medium MST power, 40% excitation power, Nano-RED excitation type and 25° C. thermostat temperature. Affinity of the peptide binding to HylA was determined by the MO.Affinity Analysis Software (Nanotemper Technologies, München, Germany).

[2] = biological target: T2, rHylA (Cutibacterium acnes, UniProt A0A2B7ICX0); experiment: HA digested with rHylA in presence of inhibitor, digest applied to HaCaT cells, IL-6 by ELISA; type: cell-based, C. acnes; settings: inhibitor 5 or 10 μM, HA 2 mg/ml digested with rHylA 24 hr, IL-6 in HaCaT culture supernatant
T2 construct: HylA (41-805) were cloned into; His6 (N); MBP (N); made in house; host or cells: E. coli BL21(DE3) pLysS
Protocol: HaCaT cells (ATCC) were cultured in complete DMEM media (Catalog no. 10-013-CV, Corning incorporated, USA) plus 10% heat-inactivated FBS in 5% C02 at 37° C. Before cell stimulation with digested HA (40 μg), HaCaT cells were seeded in 96-wells Falcon® 96-well tissue culture plate (Catalog no. #353072, corning incorporated, USA) at a concentration of 10^5 cells/ml and incubated in 5% CO2 at 37° C. for 6 hr, followed by washing with DMEM media and cell stimulation.
For BMDMs and HaCaT cell assays, an equivalent of 40 μg of HA digest was used to stimulate 10^5 cells for 8 and 16 hr, respectively. Cells were plated in a Falcon® 96-well tissue culture plate and cultured in 200 μl of complete RPMI medium supplemented with 10% FBS and 1× penicillin-streptomycin antibiotics solution. […]
IL-1β, IL-6, and TNF-α cytokine levels in skin homogenates, previously stored at −80° C., were measured by a solid-phase sandwich ELISA using commercially available mouse cytokine ELISA kits (Biolegend, San Diego, CA, USA). […] The plates were developed and read at optical density (OD) of 450 nm with a wavelength correction set to 570 nm in a multimode microplate reader (PerkinElmer, Waltham, MA, USA). […]

[3] = tested on: HL043PA1 strain; experiment: Mouse acne model, inhibitor co-injected i.d. with acne-associated HL043PA1 strain; type: in vivo, C. acnes; settings: CD1 mice, 10 μg inhibitor co-injected i.d. with 2×10^7 CFU HL043PA1, disease score and skin cytokines 24 hr post-infection
Protocol: To model human acne disease, 8 weeks-old mice were i.d. infected with C. acnes strains (2×10^7 CFU in 50 μl volume of BHI media), followed by the topical application of synthetic sebum daily as described previously. i.d. infections were performed under vaporized Isoflurane (Fluriso, Vet One) anesthesia. Synthetic sebum was made by mixing fatty acid (17% oleic acid; Catalog no. #01008, Millipore Sigma), triglyceride (45% triolein; Catalog no. #ICN10312201, FisherScientific), wax monoester (25% jojoba oil, Trader Joe), and squalene (13%; Catalog no. #AC215351000, FisherScientific). One or two days after infection, disease score was assessed and the mice were euthanized by C02. Skin lesions were aseptically excised and harvested in phosphate buffer saline (PBS, pH 7.4). […]
Gross skin pathology was scored based on tabulation of the following: Erythematous change (no=0, mild=1, moderate 2, and marked=3); papule (flat=0, small=1, large=2. And extra-large=3) based on a protocol modified from.
For in vivo experiments, inhibitors (10 μg) were injected along with C. acnes strains (2×10^7 CFU) i.d. into CD1 mice, followed by the topical application of sebum. After 24 hr, bacterial count (CFU/ml), size of the skin lesions and proinflammatory cytokines (IL-1β, IL-6 and TNF-α) in skin lesions were measured. […]

[4] = biological target: C. acnes hyaluronidase HylA, recombinant (rHylA), fluorescently labeled (C. acnes); experiment: not given; MST against fluorescent labeled HylA per the methods
[5] = biological target: C. acnes hyaluronidase HylA, recombinant (rHylA), fluorescently labeled (C. acnes); experiment: Microscale thermophoresis (MST), peptide titrated against fluorescent labeled HylA
[6] = biological target: T3, C. acnes hyaluronidase HylA, recombinant (rHylA), fluorescently labeled (C. acnes, UniProt A0A2B7ICX0 41-805, Fluorescently labelled on cysteine(s) with the RED-MALEIMIDE 2nd generation dye. Which cysteine carries the dye is not stated.); experiment: not given; MST against fluorescent labeled HylA per the methods
T3 construct: TEV cleavage is described only for the crystallization preparation; not shown: N-terminal His6-MBP-TEV tag from the pET His6 MBP TEV LIC vector
T3 sequence: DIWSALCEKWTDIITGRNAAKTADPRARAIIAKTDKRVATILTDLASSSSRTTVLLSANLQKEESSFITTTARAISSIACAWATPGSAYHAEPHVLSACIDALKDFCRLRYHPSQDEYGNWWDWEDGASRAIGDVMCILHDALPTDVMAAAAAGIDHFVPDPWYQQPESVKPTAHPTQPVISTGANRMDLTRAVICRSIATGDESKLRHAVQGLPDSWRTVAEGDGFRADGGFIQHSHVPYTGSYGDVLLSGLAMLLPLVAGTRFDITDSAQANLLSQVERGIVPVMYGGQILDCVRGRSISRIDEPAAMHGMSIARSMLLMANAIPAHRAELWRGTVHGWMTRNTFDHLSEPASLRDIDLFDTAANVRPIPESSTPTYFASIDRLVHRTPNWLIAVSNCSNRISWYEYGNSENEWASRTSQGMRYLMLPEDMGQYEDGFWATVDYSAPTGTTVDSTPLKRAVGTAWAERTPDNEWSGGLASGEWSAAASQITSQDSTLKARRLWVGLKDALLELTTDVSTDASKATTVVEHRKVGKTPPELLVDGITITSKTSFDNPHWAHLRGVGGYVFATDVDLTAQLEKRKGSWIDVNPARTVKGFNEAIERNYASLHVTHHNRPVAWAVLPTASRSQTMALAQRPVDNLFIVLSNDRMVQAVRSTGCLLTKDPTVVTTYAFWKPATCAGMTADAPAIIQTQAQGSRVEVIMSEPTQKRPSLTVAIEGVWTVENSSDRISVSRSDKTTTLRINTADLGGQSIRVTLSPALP

[7] = biological target: T3, C. acnes hyaluronidase HylA, …; experiment: Microscale thermophoresis (MST), peptide titrated against fluorescent labeled HylA
[8] = biological target: T3, C. acnes hyaluronidase HylA, …; experiment: microscale thermophoresis (MST), peptide titrated against fluorescently labeled HylA, Kd model fit, mean +/- SD of triplicates
[9] = binding constant (KD), MST, peptide titrated against 30 nM fluorescent labeled HylA, values in running text and figure legend

For `NC(=O)[C@@H](CCC(=O)O)NC(=O)[C@H](CO)NC(=O)[C@@H](CCC(=O)O)NC(=O)[C@H](Cc1ccc(O)cc1)NC(=O)[C@@H](CCC(=O)O)NC(=O)[C@H](CC(=O)O)NC(=O)[C@@H](N)Cc1ccc(O)cc1` [i93, Tyr-Asp-dGlu-Tyr-dGlu-Ser-dGlu-NH2] (H-YD[dE]Y[dE]S[dE]-NH2; N-terminus assumed), which Kd ([1]; KD, table Peptides' properties) is on record?
Its Kd is 140 µM.

What about the Kd [1, 9] of the same molecule?
The Kd was 911 µM.

How did the Kd ([1]; KD, table Peptides' properties) turn out when `N[C@@H](Cc1ccc(O)cc1)C(=O)N[C@@H](CC(=O)O)C(=O)N[C@H](CCC(=O)O)C(=O)N[C@@H](Cc1ccc(O)cc1)C(=O)N[C@H](CCC(=O)O)C(=O)N[C@@H](CO)C(=O)N[C@H](CCC(=O)O)C(=O)O` [i94, Tyr-Asp-dGlu-Tyr-dGlu-Ser-dGlu-OH] (H-YD[dE]Y[dE]S[dE]-OH; N-terminus assumed) was run?
Its Kd is 4.3 µM.

Which results are given for `NC(=O)[C@@H](CCC(=O)O)NC(=O)[C@H](CO)NC(=O)[C@H](CC(=O)O)NC(=O)[C@H](Cc1ccc(O)cc1)NC(=O)[C@@H](CCC(=O)O)NC(=O)[C@H](CC(=O)O)NC(=O)[C@H](Cc1ccc(O)cc1)NC(=O)[C@@H](CCC(=O)O)NC(=O)[C@H](CO)NC(=O)[C@@H](CCC(=O)O)NC(=O)[C@H](Cc1ccc(O)cc1)NC(=O)[C@@H](CCC(=O)O)NC(=O)[C@H](CC(=O)O)NC(=O)[C@@H](N)Cc1ccc(O)cc1` [i932, Tyr-Asp-dGlu-Tyr-dGlu-Ser-dGlu-Tyr-Asp-dGlu-Tyr-Asp-Ser-dGlu-NH2] (H-YD[dE]Y[dE]S[dE]YD[dE]YDS[dE]-NH2; N-terminus assumed)?
Kd [1, 9]: 3.06 µM; Kd ([1]; binding constant (KD), MST, peptide titrated against fluorescent labeled HylA, value): 0.0216 µM; efficacy in vitro [2]: highest efficacy; efficacy in vivo [3]: highest efficacy

How did the Kd [4] turn out when “peptide i93, Tyr-Asp-dGlu-Tyr-dGlu-Ser-dGlu-NH2” was run?
The Kd was 140 µM.

And the Kd [5]?
The Kd was 912 µM.

How did the Kd [4] turn out when “peptide i94, Tyr-Asp-dGlu-Tyr-dGlu-Ser-dGlu-OH” was run?
The Kd was 4.3 µM.

B1: peptide i932, Tyr-Asp-dGlu-Tyr-dGlu-Ser-dGlu-Tyr-Asp-dGlu-Tyr-Asp-Ser-dGlu-NH2 (peptide)
peptide: YD[dE]Y[dE]S[dE]YD[dE]YDS[dE]-NH2
modifications: N-terminus assumed
SMILES: NC(=O)[C@@H](CCC(=O)O)NC(=O)[C@H](CO)NC(=O)[C@H](CC(=O)O)NC(=O)[C@H](Cc1ccc(O)cc1)NC(=O)[C@@H](CCC(=O)O)NC(=O)[C@H](CC(=O)O)NC(=O)[C@H](Cc1ccc(O)cc1)NC(=O)[C@@H](CCC(=O)O)NC(=O)[C@H](CO)NC(=O)[C@@H](CCC(=O)O)NC(=O)[C@H](Cc1ccc(O)cc1)NC(=O)[C@@H](CCC(=O)O)NC(=O)[C@H](CC(=O)O)NC(=O)[C@@H](N)Cc1ccc(O)cc1
notes: Designed by structure-based virtual screening against the HylA crystal structure; also called 1932
B1 was tested. Which Kd [6] did it give?
Its Kd is 3.1 µM.

With YCD[dE]Y[dE]S[dE]CY-NH2 (also: cyclic peptide with Cys2 and Cys9, mode of cyclization not given here, also called 1933) [peptide i933, Tyr-Cys-Asp-dGlu-Tyr-dGlu-Ser-dGlu-Cys-Tyr-NH2] as the molecule, how does the Kd [6] read?
The Kd was 292 µM.

What about the Kd [7] of the same molecule?
The Kd was 1.76 µM.

And the “EC50 (read off the curve)” value [8]?
The value was about 2 µM.
